# System: panel of 484 cancer cell lines
# Assay: PRISM cancer cell line profiling, 5 days
# Format: cell-based
# Parameters: AUC: unit not given beside the values
# Protocol: Cancer cell line profiling was performed using the Broad’s PRISM platform. Cell treatment and data analysis were performed as described in Yu et al[42]. Raw Luminex signal was converted to AUC values for each cell line as described. The resulting AUC profile for each compound was modeled against DepMap using the limma package in R[71]. Because hotspot mutation analysis was performed against DepMap, TP53 annotations in Fig. 6c,d are directly from DepMap.
structure (smiles),measurement,setting,value
CN1CCN(CCC(=O)Nc2ccc3c(=O)n(CC4(O)CCN(C(=O)[C@H](CCCNC(=O)c5ccc6c(Cl)c7c(nc6c5)CCCC7)Cc5ccccc5)CC4)cnc3c2)CC1 [XL177B],AUC,MFE319_ENDOMETRIUM,1.072
same,AUC,MG63_BONE,1.289
same,AUC,MHHES1_BONE,1.021
same,AUC,MIAPACA2_PANCREAS,1.024
same,AUC,MKN1_STOMACH,1.134
same,AUC,MKN7_STOMACH,0.9188
same,AUC,MKN45_STOMACH,0.937
same,AUC,MKN74_STOMACH,1.1384
same,AUC,MON_SOFT_TISSUE,0.868
same,AUC,MPP89_PLEURA,1.104
same,AUC,MSTO211H_PLEURA,1.149
same,AUC,NB1_AUTONOMIC_GANGLIA,0.9815
same,AUC,NCIH23_LUNG,1.159
same,AUC,NCIH28_PLEURA,1.1
same,AUC,NCIH226_LUNG,1
same,AUC,NCIH292_LUNG,1.194
same,AUC,NCIH322_LUNG,1.142
same,AUC,NCIH358_LUNG,0.8695
same,AUC,NCIH446_LUNG,1.097
same,AUC,NCIH460_LUNG,1.182
same,AUC,NCIH520_LUNG,1.115
same,AUC,NCIH522_LUNG,1.144
same,AUC,NCIH596_LUNG,1.0995
same,AUC,NCIH650_LUNG,0.9625
same,AUC,NCIH661_LUNG,1.097
same,AUC,NCIH727_LUNG,0.8802
same,AUC,NCIH747_LARGE_INTESTINE,1.192
same,AUC,NCIH838_LUNG,1.102
same,AUC,NCIH841_LUNG,0.9191
same,AUC,NCIH1048_LUNG,1.221
same,AUC,NCIH1299_LUNG,1.132
same,AUC,NCIH1339_LUNG,1.0827
same,AUC,NCIH1355_LUNG,1
same,AUC,NCIH1373_LUNG,1
same,AUC,NCIH1435_LUNG,1.103
same,AUC,NCIH1437_LUNG,1.1299
same,AUC,NCIH1563_LUNG,1.106
same,AUC,NCIH1568_LUNG,1.0425
same,AUC,NCIH1573_LUNG,1.2267
same,AUC,NCIH1581_LUNG,1
same,AUC,NCIH1623_LUNG,0.9367
same,AUC,NCIH1648_LUNG,0.9797
same,AUC,NCIH1650_LUNG,1
same,AUC,NCIH1651_LUNG,1.093
same,AUC,NCIH1693_LUNG,0.9899
same,AUC,NCIH1703_LUNG,1.014
same,AUC,NCIH1792_LUNG,1.039
same,AUC,NCIH1793_LUNG,1.204
same,AUC,NCIH1838_LUNG,1.05
same,AUC,NCIH1915_LUNG,1.114
same,AUC,NCIH1944_LUNG,1.069
same,AUC,NCIH1975_LUNG,0.971
same,AUC,NCIH2009_LUNG,1.115
same,AUC,NCIH2023_LUNG,1.241
same,AUC,NCIH2030_LUNG,1.104
same,AUC,NCIH2052_PLEURA,1.077
same,AUC,NCIH2077_LUNG,1.134
same,AUC,NCIH2087_LUNG,1.226
same,AUC,NCIH2110_LUNG,1.058
same,AUC,NCIH2122_LUNG,0.9408
same,AUC,NCIH2126_LUNG,1.236
same,AUC,NCIH2170_LUNG,1.101
same,AUC,NCIH2172_LUNG,1.092
same,AUC,NCIH2228_LUNG,1.118
same,AUC,NCIH2347_LUNG,1.188
same,AUC,NCIH2444_LUNG,1.192
same,AUC,NCIH2452_PLEURA,1.126
same,AUC,NCIN87_STOMACH,1.49
same,AUC,NUGC3_STOMACH,1.06
same,AUC,NUGC4_STOMACH,0.9885
same,AUC,OAW42_OVARY,1.241
same,AUC,OC314_OVARY,1.074
same,AUC,OC316_OVARY,1.04
same,AUC,OE19_OESOPHAGUS,1.175
same,AUC,OE21_OESOPHAGUS,1.031
same,AUC,OE33_OESOPHAGUS,1.151
same,AUC,ONCODG1_OVARY,0.9433
same,AUC,ONS76_CENTRAL_NERVOUS_SYSTEM,0.9415
same,AUC,OSRC2_KIDNEY,0.9859
same,AUC,OUMS23_LARGE_INTESTINE,0.9052
same,AUC,OV56_OVARY,1.208
same,AUC,OVCAR8_OVARY,0.9939
same,AUC,OVISE_OVARY,0.9359
same,AUC,OVK18_OVARY,1.044
same,AUC,OVSAHO_OVARY,1.01
same,AUC,OVTOKO_OVARY,1.081
same,AUC,PANC1_PANCREAS,0.9949
same,AUC,PANC0203_PANCREAS,0.9842
same,AUC,PANC0327_PANCREAS,1.28
same,AUC,PANC0403_PANCREAS,1.185
same,AUC,PANC0813_PANCREAS,1.0849
same,AUC,PANC1005_PANCREAS,1.231
same,AUC,PATU8902_PANCREAS,1.2352
same,AUC,PATU8988S_PANCREAS,1.1933
same,AUC,PATU8988T_PANCREAS,1.0752
same,AUC,PC3_PROSTATE,0.9113
same,AUC,PC14_LUNG,1.023
same,AUC,PECAPJ15_UPPER_AERODIGESTIVE_TRACT,0.9342
same,AUC,PECAPJ41CLONED2_UPPER_AERODIGESTIVE_TRACT,0.9621
same,AUC,PECAPJ49_UPPER_AERODIGESTIVE_TRACT,1.067
same,AUC,PK1_PANCREAS,1.024
same,AUC,PK45H_PANCREAS,1.109
same,AUC,PK59_PANCREAS,1.206
same,AUC,PLCPRF5_LIVER,1.091
same,AUC,PSN1_PANCREAS,1.221
same,AUC,QGP1_PANCREAS,0.967
same,AUC,RCC10RGB_KIDNEY,1.114
same,AUC,RCM1_LARGE_INTESTINE,1.243
same,AUC,RD_SOFT_TISSUE,1.111
same,AUC,RERFLCAD1_LUNG,1.059
same,AUC,RERFLCAD2_LUNG,1.0662
same,AUC,RERFLCAI_LUNG,0.9008
same,AUC,RERFLCKJ_LUNG,0.9276
same,AUC,RERFLCMS_LUNG,1.058
same,AUC,RH30_SOFT_TISSUE,1.104
same,AUC,RKN_SOFT_TISSUE,0.8189
same,AUC,RKO_LARGE_INTESTINE,0.9705
same,AUC,RL952_ENDOMETRIUM,1.086
same,AUC,RMGI_OVARY,1.148
same,AUC,RMUGS_OVARY,0.9927
same,AUC,RT4_URINARY_TRACT,1.661

# — paper PMC7093416, “Selective USP7 inhibition elicits cancer cell killing through a p53-dependent mechanism” (Scientific Reports, 2020)
